From US20210393585A1, “METHOD FOR PREVENTING AND/OR TREATING A STRESS-INDUCED DISEASE” (TZU CHI UNIVERSITY, priority 2020, published 2021)

Assays:
Format in all cases: in vivo
B57BL/6J mice [1] = test: Restraint stress-mediated immunosuppression in anti-platelet (CD41) Ig induced immune thrombocytopenia (ITP) model, platelet counts; conditions: for rescue of restraint stress-mediated immunosuppression (ITP model): restraint (psychological) stress, FIG. 7
Description: Experiment outlines (A). The effects of tanshinone IIA treatments on the restraint stress-mediated amelioration of immune thrombocytopenia (ITP) (B) were analyzed. The data are representative of three independent experiments with two mice per group (n=6). ** P<0.01 compared with the respective vehicle groups in the tanshinone IIA vs. vehicle treatments (B).
The effects of tanshinone I (A), crytotanshinone (B), tanshinone IIA sodium sulfate (C) treatments on the restraint stress-mediated amelioration of immune thrombocytopenia (ITP) were analyzed. The data are representative of three independent experiments with two mice per group (n=6). * P<0.05, ** P<0.01 compared with the respective vehicle without stress (0 h) groups, #P<0.05, ##P<0.01 compared with the respective tanshinone IIA, without stress groups in the ITP experiments.
(§1) Autoimmune thrombocytopenia (ITP) mouse model, through intravascular injections of anti-platelet (CD41) Ig following previously reported methods (Huang et al., Blood 2010; 116:5002-9), was employed to investigate the immunosuppressive property of cold exposure and restraint stress, and immune enhancing properties of tanshinone IIA and its derivatives. The B57BL/6J mice were intravenously injected with 0.1 mg/kg (body weight) of an antiplatelet monoclonal antibody (rat antimouse integrin αIIb/CD41 Ig, clone MWReg30, BD PharMingen) to induce ITP. Mice with or without injections of anti-CD41 Ig were subjected to cold exposure and restraint stress. To address the immune enhancing properties of tanshinone IIA, these mice were further treated with or without tanshinone I, tanshinone IIA, tanshinone IIA sodium sulfate, crytotanshinone (10-2 to 10 mg/kg) treatments. To determine the mouse platelet counts, whole blood samples (100-120 μL) of the mice were collected from the retro-orbital venous plexus and mixed with an anticoagulant, a citrate dextrose solution (38 mM citric acid, 75 mM sodium citrate, and 100 mM dextrose), in Eppendorf tubes. Subsequently, platelet counts were measured using a hematology analyzer (KX-21N, Sysmex) at various time intervals as previously described (Chan et al., Oncotarget 2018; 9:12781-95; Huang et al., Blood 2010; 116:5002-9).

B57BL/6J mice [2] = test: Cold stress-mediated immunosuppression in anti-platelet (CD41) Ig induced immune thrombocytopenia (ITP) model, platelet counts; conditions: for rescue of cold stress-mediated immunosuppression (ITP model): FIG. 8
Description: (§2) Experiment outlines (A and C). The effects of tanshinone IIA treatments on the cold-mediated amelioration of immune thrombocytopenia (ITP) (B) and cold-suppressed bacterial clearance (D) were analyzed. The data are representative of three independent experiments with two mice per group (n=6). ** P<0.01 compared with the respective vehicle (25° C.) groups, ##P<0.01 compared with the respective tanshinone IIA 25° C. groups (B and D).
The effects of tanshinone I (A), crytotanshinone (B), tanshinone IIA sodium sulfate (C) treatments on the cold-mediated amelioration of immune thrombocytopenia (ITP) were analyzed. The data are representative of three independent experiments with two mice per group (n=6). ** P<0.01 compared with the respective vehicle (25° C.) groups, ##P<0.01 compared with the respective tanshinone IIA 25° C. groups.
as §1

B57BL/6J mice [3] = test: Restraint stress-induced gastrointestinal leakage (circulating Evans blue); conditions: stressed, 9 h groups with vs without TSNIIA, #P<0.05, FIG. 1
Description: (§3) Experiment outlines (A). The effects of tanshinone IIA treatments on the amelioration of restraint stress induced gastrointestinal leakage (B) were analyzed. The data are representative of three independent experiments with two mice per group (n=6). * P<0.05 compared with the respective 5 h, no stress groups, #P<0.05 compared with the respective stress groups of each time course (B). EB: Evans blue.
(§4) The results of the exemplary rescue of restraint stress-induced gastrointestinal leakage by tanshinone IIA (TSNIIA) treatments are shown in FIG. 1. Evans blue, a gastrointestinal non-absorbable dye, is able to bind circulating albumin to form dye-protein complexes, which cannot normally penetrate the endothelial cell layers of the vascular system, unless the tissue has been damaged (Yao et al., Contrast Media Mol Imaging 2018; 2018:7628037). Accordingly, circulating Evens blue levels are approximately and proportionally correlated to the levels of gastrointestinal injury.

B57BL/6J mice [4] = test: Cold stress-induced gastrointestinal leakage (circulating Evans blue); conditions: stressed, 9 h groups with vs without TSNIIA, #P<0.05, FIG. 3
Description: as §3, with “cold exposure-induced” for “restraint stress induced”, “** P<0.01” for “* P<0.05”
as §4

E. coli, BL21 = test: Cold-suppressed bacterial clearance (surviving bacteria in spleen); conditions: mice challenged i.v. with E. coli, compared to vehicle control (without immunosuppression) groups, FIG. 4D
Description: as §2
The bacterium E. coli was cultured using standard methods. To analyze the immunosuppressive effects of cold exposure and restraint stress on bacterial clearance, following our previously developed methods (Chan et al., Oncotarget 2018; 9:12781-95), the experimental mice were challenged by intravenously administering bacteria (E. coli, BL21, 6×10^9 CFU/kg; no mortality within 24 h at 4° C.); a 40-h circulating equilibrium at a 25° C. environment was required before cold exposure (control groups: 25° C. exposure) and restraint stress. One day after treatment with cold exposure or restraint stress, the spleens of the euthanized mice were collected and weighed. After homogenization (homogenizer, BioSpec Products, Racine, Wis., USA) in PBS, surviving bacteria (colony forming units [CFUs]) in the spleen tissues were quantified using the standard plating method. […]

cortisol = test: Cold stress-induced plasma cortisol (ELISA); conditions: mice, FIG. 5
Description: The time course on the effects of tanshinone IIA treatments on the cold-mediated amelioration of immune thrombocytopenia (ITP) (A) and cold-induced elevation of cortisol (B) was analyzed. The data are representative of three independent experiments with two mice per group (n=6). ** P<0.01 compared with the respective vehicle (25° C.)/vehicle (0 h) groups.
Blood samples were collected from experimental mice under cold stress or restraint stress for 7 h. The plasma levels of cortisol were measured using an ELISA kit (Cayman Chemical, Ann Arbor, Mich., USA) as previously described (Chan et al., Oncotarget 2018; 9:12781-95).

Compound: C[C@H]1COC2=C1C(=O)C(=O)c1c2ccc2c1CCCC2(C)C [crytotanshinone]
- rescue of restraint stress-mediated immunosuppression (ITP model) (B57BL/6J mice [1]): exert similar immune enhancing properties under psychological stress
- rescue of cold stress-mediated immunosuppression (ITP model) (B57BL/6J mice [2]): exert similar immune enhancing properties under cold stress

Compound: Cc1coc2c1C(=O)C(=O)c1c-2ccc2c1CCCC2(C)C [tanshinone IIA]
- restraint stress-induced gastrointestinal injury (circulating Evans blue levels) (B57BL/6J mice [3]): able to ameliorate stress-induced gastrointestinal injury
- rescue of restraint stress-mediated immunosuppression (ITP model) (B57BL/6J mice [1]): exert similar immune enhancing properties under psychological stress
- platelet counts after restraint stress in anti-platelet (CD41) Ig induced thrombocytopenia (B57BL/6J mice [1]; restraint stress, compared to vehicle control (without immunosuppression) groups, FIG. 2): remain low and do not show statistical significance as compared to the vehicle control
- cold stress-induced gastrointestinal injury (circulating Evans blue levels) (B57BL/6J mice [4]): able to ameliorate cold stress-induced gastrointestinal injury
- rescue of cold stress-mediated immunosuppression (ITP model) (B57BL/6J mice [2]): exert similar immune enhancing properties under cold stress
- platelet counts after cold stress in anti-platelet (CD41) Ig induced thrombocytopenia (B57BL/6J mice [2]; compared to vehicle control (without immunosuppression) groups, FIG. 4B): remain low and do not show statistical significance as compared to the vehicle control
- bacterial clearance rate after cold stress (E. coli, BL21): the bacterial clearance rate is high
- cold stress-induced levels of circulating cortisol (cortisol): counteract the cold stress-induced levels of circulating anti-inflammatory steroid hormone cortisol

Compound: Cc1coc2c1C(=O)C(=O)c1c-2ccc2c(C)cccc12 [tanshinone I]
- rescue of restraint stress-mediated immunosuppression (ITP model) (B57BL/6J mice [1]): exert similar immune enhancing properties under psychological stress
- rescue of cold stress-mediated immunosuppression (ITP model) (B57BL/6J mice [2]): exert similar immune enhancing properties under cold stress

Compound: tanshinone IIA sodium sulfate
- rescue of restraint stress-mediated immunosuppression (ITP model) (B57BL/6J mice [1]): exert similar immune enhancing properties under psychological stress
- rescue of cold stress-mediated immunosuppression (ITP model) (B57BL/6J mice [2]): exert similar immune enhancing properties under cold stress
